Converted amounts (≈) assume the structure as drawn.
Tests used:
[1] = tested on: HT29 cell (colorectal adenocarcinoma); assay: XTT cell viability assay, HT29; type: cell-based, human; details: for IC50: Homo sapiens, HT-29, XTT
Description: (§1) The human cell lines MCF-7 (breast adenocarcinoma), HepG2 (hepatoma), T24 (bladder cancer), CACO-2 (colorectal adenocarcinoma) and MRC5 (lung normal fibroblast) were obtained from the Rio de Janeiro Cell Bank (Rio de Janeiro, RJ, Brazil). The HCT116 cell (colorectal carcinoma), and HT29 cell (colorectal adenocarcinoma) were kindly provided by Dr. Annette K. Larsen (Institut National de la Santé et de la Recherche Médicale - INSERM, Paris, França). All cell lines except MCF-7 were grown in DMEM supplemented with 10% or 20% (for CACO-2) FBS, 100 units.mL^-1 penicillin and 100 μg.mL^-1 streptomycin at 37°C in a humidified atmosphere of 5% CO2. MCF-7 cells were maintained in RPMI-1640 supplemented with 20% FBS at the same conditions described above.
(§2) The cytotoxic potential of the TTHL was evaluated by the XTT assay in human tumor cell lines as well as in MRC5 normal fibroblasts. Cells (1 × 10^4 cells) were seeded on 96-well plates in growth medium and incubated overnight. Afterwards, TTHL (0.5, 1.0, 2.5, 5.0, and 10 μg/mL) was added to each well and incubated for 24, 48, 72, and 120 h. Mitoxantrone, a cytostatic anthracenedione that intercalates in DNA and increases the incidence of double-strand breaks by stabilizing the cleavable complex of topoisomerase II and DNA, was used as positive control. At the end of each treatment, cell viability was assessed according to the manufacturer’s instructions. Briefly, after discarding the medium, 1 mL of XTT labeling mixture was added to the cells and incubated for 2 h at 37°C. Absorbance was measured with a SpectraMax reader (Bio-Rad, USA) at a test wavelength of 492 nm (A492) and a reference wavelength of 690 nm (A690). The final result corresponds to A492-A690. The absorbance of negative control cells was set as 100% viability, and the values for treated cells were calculated as a percentage of the control.
(§3) The IC20, IC50, and IC80 values and their 95% confidence intervals (CI 95%) were obtained by nonlinear regression using GraphPad Prism v5 program (Intuitive Software for Science, San Diego, CA, USA). Selective index (SI) was calculated by IC50 in MRC5 cells/IC50 in tumoral cells. All experiments were independently repeated at least three times, with triplicate samples for each treatment. Results are expressed as means ± standard deviation (SD). Data were analyzed by one-way analysis of variance (ANOVA), and means were compared using Tukey test, with P ≤ 0.05 considered as statistically significant.

[2] = tested on: cleaved caspase-9 in MCF-7 cells; assay: Quantification of cleaved caspase-9 by flow cytometric analysis; type: cell-based, human; details: MCF-7, 24 h
Description: Cells (2 × 10^5 cells/mL) were seeded on 6-well tissue culture plates, and grown for 1 day up to 70–80% confluence before treatment with the test substance. The TTHL was added to medium with FBS to obtain the different concentrations, and cells were treated at 37°C for 24 h in humidified atmosphere containing 5% CO2.
After treatment, cells (1 × 10^6) were harvested, resuspended in 25 μL PBS and fixed with 4% formaldehyde. After permeabilization and blocking (0.2% Triton X-100 in PBS and 1% BSA), cells were incubated with anti-caspase-9 antibody (diluted 1:1000) for 1 h at room temperature, followed by incubation with anti-rabbit FITC secondary antibody (Uniscience) (diluted 1:1000) for 1 h at room temperature in the dark. A total of 10,000 events were analyzed per sample by FACS Calibur flow cytometer. Fluorescence intensity in arbitrary units was plotted in histograms; the mean fluorescence intensity was calculated using CellQuest software.

[3] = tested on: MCF-7 (breast adenocarcinoma); assay: XTT cell viability assay, MCF-7; type: cell-based, human; details: for IC50: XTT
Description: as §1, §2, §3

[4] = tested on: MRC5 (lung normal fibroblast); assay: XTT cell viability assay, MRC5 normal fibroblasts; type: cell-based; details: Homo sapiens
Description: as §1, §2, §3

[5] = tested on: S. cerevisiae EG118 (sod1Δ); assay: Yeast survival assay, EG118 (sod1Δ); type: cell-based, Saccharomyces cerevisiae; details: for survival (percentage in relation to negative control): STAT cells, 1 h in PBS 30°C
Description: Media, solutions and buffers were prepared according to Burke et al.. YPD medium (0.5% yeast extract, 2% peptone, 2% glucose) was used for routine growth. Synthetic medium SC (0.67% yeast nitrogen base, 0.1% ammonium sulfate, 2% glucose) supplemented with the appropriate amino acids and bases ([…]) was used for the detection of mutations.
Stationary phase (STAT) cultures were obtained by inoculation of a single colony into liquid YPD. We chose to work in the stationary phase of growth because this resembles most cells of multicellular organisms in important aspects: (i) most energy comes from mitochondrial respiration; (ii) the cells have left the active cell cycle and have entered the Go phase; and (iii) damage accumulates over time.
STAT cells (1 × 10^8 cells/mL) were exposed to TTHL (10–500 μg/mL) and incubated under growth conditions for 1 h in PBS at 30°C. Cells were then washed and treated with H2O2 (5 mM) in PBS for another hour. Suitable aliquots were plated in triplicate on solid YPD (2–3 days, 30°C) and colony-forming units were counted. Sensitivity was expressed as a percentage of survival in relation to the negative control (solvent).

[6] = tested on: HepG2 (hepatoma); assay: XTT cell viability assay, HepG2; type: cell-based, human; details: for IC50: Homo sapiens, XTT
Description: as §1, §2, §3

**Q.** What does the source list for C=C(C)[C@@H]1CC[C@@]2(C)[C@H]1[C@H]1CC[C@@H]3[C@@]4(C)CC[C@H](O)C(C)(C)[C@@H]4[C@H](O)C[C@@]3(C)[C@]1(C)C[C@@H]2O [TTHL, 3β,6β,16β-trihydroxy-lup-20(29)-ene]?
**A.** IC50 ([1]; HT29, 24 h treatment): 8 ± 0.14 µg/mL (≈ 17.4 µM); IC50 ([1]; HT29, 48 h treatment): 7 ± 0.42 µg/mL (≈ 15.3 µM); IC50 ([1]; HT29, 72 h treatment): 6.15 ± 0.21 µg/mL (≈ 13.4 µM); IC50 ([1]; HT29, 120 h treatment): 5.3 ± 0.28 µg/mL (≈ 11.6 µM); Selectivity index (SI) ([1]; IC50 in MRC5 cells/IC50 in HT29, 24 h): 1 X; Selectivity index (SI) ([1]; IC50 in MRC5 cells/IC50 in HT29, 48 h): 1 X; Selectivity index (SI) ([1]; IC50 in MRC5 cells/IC50 in HT29, 72 h): 1 X; Selectivity index (SI) ([1]; IC50 in MRC5 cells/IC50 in HT29, 120 h): 1 X; levels of cleaved caspase-9 ([2]; TTHL at IC20): no significant changes; induction of cleaved caspase-9-labeled cells ([2]; TTHL at IC50): increased induction of cleaved caspase-9-labeled cells; induction of cleaved caspase-9-labeled cells ([2]; TTHL at IC80): increased induction of cleaved caspase-9-labeled cells; IC20 ([3]; Homo sapiens, MCF7, MCF-7, 24 h, determined by XTT assay, read-out: IC20 (20% inhibitory concentration)): 0.5 µg/mL (≈ 1.09 µM); IC80 ([3]; Homo sapiens, MCF7, MCF-7, 24 h, determined by XTT assay, read-out: IC80 (80% inhibitory concentration)): 3.7 µg/mL (≈ 8.07 µM); IC50 ([3]; Homo sapiens, MCF7, MCF-7, 24 h treatment): 1.36 ± 0.05 µg/mL (≈ 2.96 µM); IC50 ([3]; Homo sapiens, MCF7, MCF-7, 48 h treatment): 0.73 ± 0.05 µg/mL (≈ 1.59 µM); IC50 ([3]; Homo sapiens, MCF7, MCF-7, 72 h treatment): 0.63 ± 0.04 µg/mL (≈ 1.37 µM); IC50 ([3]; Homo sapiens, MCF7, MCF-7, 120 h treatment): 0.3 ± 0.04 µg/mL (≈ 0.654 µM); Selectivity index (SI) ([3]; IC50 in MRC5 cells/IC50 in MCF-7, 48 h): 10 X; Selectivity index (SI) ([3]; IC50 in MRC5 cells/IC50 in MCF-7, 72 h): 12 X; Selectivity index (SI) ([3]; IC50 in MRC5 cells/IC50 in MCF-7, 120 h): 23 X; IC50 ([4]; MRC5, 24 h treatment): 8.4 ± 0.28 µg/mL (≈ 18.3 µM); IC50 ([4]; MRC5, 48 h treatment): 7.6 ± 0.14 µg/mL (≈ 16.6 µM); IC50 ([4]; MRC5, 72 h treatment): 7.4 ± 0.15 µg/mL (≈ 16.1 µM); IC50 ([4]; MRC5, 120 h treatment): 6.84 ± 0.1 µg/mL (≈ 14.9 µM); survival (percentage in relation to negative control) ([5]; TTHL 10 μg/mL): 92.60 ± 2.83%; survival (percentage in relation to negative control) ([5]; TTHL 50 μg/mL): 89.30 ± 0.85 %; survival (percentage in relation to negative control) ([5]; TTHL 100 μg/mL): 75.65 ± 4.60 %; survival (percentage in relation to negative control) ([5]; TTHL 500 μg/mL): 69.30 ± 3.68 %; sensitivity of the strain to TTHL (in words) ([5]; deficient in superoxide dismutase): hypersensitive; IC50 ([6]; HepG2, 24 h treatment): 6.5 ± 0.43 µg/mL (≈ 14.2 µM); IC50 ([6]; HepG2, 48 h treatment): 6.1 ± 0.28 µg/mL (≈ 13.3 µM); IC50 ([6]; HepG2, 72 h treatment): 5.45 ± 0.35 µg/mL (≈ 11.9 µM); IC50 ([6]; HepG2, 120 h treatment): 0.88 ± 0.13 µg/mL (≈ 1.92 µM); Selectivity index (SI) ([6]; IC50 in MRC5 cells/IC50 in HepG2, 24 h): 1.3 X; Selectivity index (SI) ([6]; IC50 in MRC5 cells/IC50 in HepG2, 48 h): 1 X; Selectivity index (SI) ([6]; IC50 in MRC5 cells/IC50 in HepG2, 72 h): 1 X; Selectivity index (SI) ([6]; IC50 in MRC5 cells/IC50 in HepG2, 120 h): 8 X
